{"source": "patent US9492542B2", "about": "“Pharmaceutical composition for the treatment of MCP-1 mediated inflammatory diseases” (priority 2009, dated 2016)", "key": {"MCP-1 [1]": {"system": "MCP-1", "assay": "Effect on LPS-induced MCP-1 plasma levels in mice (Example 1, ELISA)", "settings": "calculated versus vehicle group; same doses and schedule as E1", "protocol": "MCP-1 plasma levels were measured by commercially available ELISA kit. Drugs were intraperitoneally (ip) administered 30 minutes before LPS injection (50 μg/mouse, ip) to groups of eight mice. […] The percent reduction was calculated versus the vehicle group."}, "MCP-1 [2]": {"system": "MCP-1", "settings": "calculated versus vehicle group; same doses and schedule as E6", "protocol": "MCP-1 plasma levels were measured by commercially available ELISA kit.\nDrugs were intraperitoneally (ip) administered 30 minutes before LPS injection (50 μg/mouse, ip) to groups of six mice. At 3 hours following\nLPS injection, mice were anesthetized and blood was withdrawn by intracardiac puncture in order to obtain plasma (heparinized samples) to be used to measure MCP-1 levels.\nThe percent reduction was calculated versus the vehicle group."}, "[3]": {"assay": "Effect on proteinuria in human: Urinary Albumin Excretion (UAE) in Type 2 diabetes patients (Example 2)", "format": "in vivo", "settings": "8 weeks, bindarit 600 mg twice a day, irbesartan 300 mg once a day", "text": "Irbesartan is a well known angiotensin receptor blockers (ARB). The treatment lasted 8 weeks."}}, "note": "Read-outs that look alike come from different tables or passages of the source.", "data": [{"smiles": "CCCCc1nc(Cl)c(CO)n1Cc1ccc(-c2ccccc2-c2nn[nH]n2)cc1", "note": "[Losartan, losartan]", "values": [{"measurement": "MCP-1 plasma level % reduction", "setting": "MCP-1 [1]", "value": 13, "unit": "%"}]}, {"smiles": "COc1ccc(CCN(C)CCCC(C#N)(c2ccc(OC)c(OC)c2)C(C)C)cc1OC", "note": "(centres unmarked) [Verapamil, verapamil]", "values": [{"measurement": "MCP-1 plasma level % reduction", "setting": "MCP-1 [2]", "value": 26, "unit": "%"}]}, {"smiles": "CCOC(=O)[C@H](CCc1ccccc1)N[C@@H](C)C(=O)N1[C@H](C(=O)O)C[C@@H]2CCC[C@@H]21", "note": "[Ramipril, ramipril]", "values": [{"measurement": "MCP-1 plasma level % reduction", "setting": "MCP-1 [1]", "value": 30, "unit": "%"}]}, {"smiles": "CCCCC1=NC2(CCCC2)C(=O)N1Cc1ccc(-c2ccccc2-c2nnn[nH]2)cc1", "note": "[Placebo + Irbesartan, irbesartan]", "values": [{"measurement": "Patient percentage with a UAE reduction equal to or higher than 25% with respect to basal value", "setting": "[3]", "value": 27.5, "unit": "%"}]}, {"smiles": "CCC(C)(C)C(=O)O[C@H]1C[C@@H](C)C=C2C=C[C@H](C)[C@H](CC[C@@H]3C[C@@H](O)CC(=O)O3)[C@H]21", "note": "[Simvastatin, simvastatin]", "values": [{"measurement": "MCP-1 plasma level % reduction", "setting": "MCP-1 [1]", "value": 7, "unit": "%"}]}]}
